Results from patent US8802597B2, “Herbicidal pyrimidines” (E I du Pont de Nemours and Company, priority 2003, dated 2014).

Columns and labels:
Format in all cases: in vivo
[1] = system: Russian thistle (Salsola kali); assay: Test D pre/postemergence; conditions: scale 0 to 100 (100 = complete control)
Summary of the method: (§1)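 Pre: seeds sown, then treated. Post: plants at 1- to 4-leaf stage (2 to 18 cm) sprayed at the same time. Chemicals formulated in a non-phytotoxic solvent mixture including surfactant. After 15 to 25 days under controlled growth conditions, response rated visually from 0 (no effect) to 100 (complete control).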

[2] = system: catchweed bedstraw (galium; Galium aparine); assay: Test D pre/postemergence; conditions: scale 0 to 100 (100 = complete control)
Summary of the method: as §1

[3] = system: common chickweed (Stellaria media); assay: Test D pre/postemergence; conditions: scale 0 to 100 (100 = complete control)
Summary of the method: as §1

kochia (Kochia scoparia) = assay: Test D pre/postemergence; conditions: scale 0 to 100 (100 = complete control)
Summary of the method: as §1

[4] = system: lambsquarters (Chenopodium album); assay: Test D pre/postemergence; conditions: scale 0 to 100 (100 = complete control)
Summary of the method: as §1

[5] = system: pigweed (Amaranthus retroflexus); assay: Test D pre/postemergence; conditions: scale 0 to 100 (100 = complete control)
Summary of the method: as §1

[6] = system: wheat (Triticum aestivum); assay: Test D pre/postemergence; conditions: scale 0 to 100 (100 = complete control)
Summary of the method: as §1

[7] = system: wild buckwheat (Polygonum convolvulus); assay: Test D pre/postemergence; conditions: scale 0 to 100 (100 = complete control)
Summary of the method: as §1

[8] = system: wild mustard (Sinapis arvensis); assay: Test D pre/postemergence; conditions: scale 0 to 100 (100 = complete control)
Summary of the method: as §1

[9] = system: broadleaf signalgrass (Brachiaria platyphylla); assay: Test G pre/postemergence
Source text: (§2) Seeds or nutlets of plant species selected from bermudagrass (Cynodon dactylon), Surinam grass (Brachiaria decumbens), large crabgrass (Digitaria sanguinalis), green foxtail (Setaria viridis), goosegrass (Eleusine indica), johnsongrass (Sorghum halepense), kochia (Kochia scoparia), pitted morningglory (Ipomoea lacunosa), purple nutsedge (Cyperus rotundus), common ragweed (Ambrosia elatior), black mustard (Brassica nigra), guineagrass (Panicum maximum), dallisgrass (Paspalum dilatatum), barnyardgrass (Echinochloa crus-galli), southern sandbur (Cenchrus echinatus), common sowthistle (Sonchus oleraceous), prickly sida (Sida spinosa), Italian ryegrass (Lolium multiflorum), common purslane (Portulaca oleracea), broadleaf signalgrass (Brachiaria platyphylla), common groundsel (Senecio vulgaris), common chickweed (Stellaria media), tropical spiderwort (Commelina benghalensis), annual bluegrass (Poa annua), downy bromegrass (Bromus tectorum), itchgrass (Rottboellia cochinchinensis), quackgrass (Elytrigia repens), Canada horseweed (Conyza canadensis), field bindweed (Convolvulus arvensis), spanishneedles (Bidens bipinnata), common mallow (Malva sylvestris), and Russian thistle (Salsola kali) were planted and treated preemergence with test chemicals formulated in a non-phytotoxic solvent mixture which included a surfactant.
(§3) At the same time, plants selected from these weed species were treated with postemergence applications of some of the test chemicals formulated in the same manner. Plants ranged in height from 2 to 18 cm (1- to 4-leaf stage) for postemergence treatments. Treated plants and controls were maintained in a greenhouse for 12 to 21 days, after which time all species were compared to controls and visually evaluated.
(§4) Plant response ratings, summarized in Table G, are based on a scale of 0 to 100 where 0 is no effect and 100 is complete control. A dash (-) response means no test result.

[10] = system: common mallow (Malva sylvestris); assay: Test G pre/postemergence
Source text: as §2, §3, §4

[11] = system: large crabgrass (Digitaria sanguinalis); assay: Test G pre/postemergence
Source text: as §2, §3, §4

[12] = system: quackgrass (Elytrigia repens); assay: Test G pre/postemergence
Source text: as §2, §3, §4

[13] = Postemergence, 250 g ai/ha, scale 0 to 100
[14] = Postemergence, 500 g ai/ha, scale 0 to 100
[15] = Postemergence, 62 g ai/ha, scale 0 to 100
[16] = Postemergence, 125 g ai/ha, scale 0 to 100
[17] = Postemergence, 375 g ai/ha, scale 0 to 100
[18] = Preemergence, 62 g ai/ha, scale 0-100
[19] = Preemergence, 125 g ai/ha, scale 0-100
[20] = Preemergence, 250 g ai/ha, scale 0-100
[21] = Preemergence, 500 g ai/ha, scale 0-100
[22] = Preemergence, 500 g ai/ha, scale 0 to 100

CCOC(=O)c1nc(C2CC2)nc(N)c1Br [Compound 1, ethyl 6-amino-5-bromo-2-cyclopropyl-4-pyrimidinecarboxylate]
85: Plant response rating, Russian Thistle ([1]; Postemergence, 62 g ai/ha) | Plant response rating, Chickweed ([3]; Postemergence, 125 g ai/ha) | Plant response rating, Kochia (kochia (Kochia scoparia); Postemergence, 16 g ai/ha) | Plant response rating, Lambsquarters ([4]; Preemergence, 62 g ai/ha) | Plant response rating, Signalgrass [9, 14]
35: Plant response rating, Wheat ([6]; Preemergence, 16 g ai/ha)
10: Plant response rating, Signalgrass [9, 18] | Plant response rating, Quackgrass [12, 15] | Plant response rating, Quackgrass [12, 18]
45: Plant response rating, Russian Thistle ([1]; Postemergence, 16 g ai/ha) | Plant response rating, Buckwheat, Wild ([7]; Preemergence, 16 g ai/ha)
20: Plant response rating, Signalgrass [9, 15] | Plant response rating, Crabgrass, Large [11, 18]
90: Plant response rating, Wheat ([6]; Postemergence, 62 g ai/ha) | Plant response rating, Mustard, Wild ([8]; Preemergence, 125 g ai/ha) | Plant response rating, Crabgrass, Large [11, 20] | Plant response rating, Crabgrass, Large [11, 22] | Plant response rating, Crabgrass, Large ([11]; Preemergence, 375 g ai/ha, scale 0 to 100) | Plant response rating, Quackgrass [12, 20]
100: Plant response rating, Russian Thistle ([1]; Postemergence, 125 g ai/ha) | Plant response rating, Russian Thistle ([1]; Preemergence, 16 g ai/ha) | Plant response rating, Russian Thistle ([1]; Preemergence, 31 g ai/ha) | Plant response rating, Russian Thistle ([1]; Preemergence, 62 g ai/ha) | Plant response rating, Russian Thistle ([1]; Preemergence, 125 g ai/ha) | Plant response rating, Galium ([2]; Postemergence, 31 g ai/ha) | Plant response rating, Galium ([2]; Postemergence, 62 g ai/ha) | Plant response rating, Galium ([2]; Postemergence, 125 g ai/ha) | Plant response rating, Galium ([2]; Preemergence, 62 g ai/ha) | Plant response rating, Galium ([2]; Preemergence, 125 g ai/ha) | Plant response rating, Kochia (kochia (Kochia scoparia); Postemergence, 31 g ai/ha) | Plant response rating, Kochia (kochia (Kochia scoparia); Postemergence, 62 g ai/ha) | Plant response rating, Kochia (kochia (Kochia scoparia); Postemergence, 125 g ai/ha) | Plant response rating, Kochia (kochia (Kochia scoparia); Preemergence, 62 g ai/ha) | Plant response rating, Kochia (kochia (Kochia scoparia); Preemergence, 125 g ai/ha) | Plant response rating, Lambsquarters ([4]; Postemergence, 62 g ai/ha) | Plant response rating, Lambsquarters ([4]; Postemergence, 125 g ai/ha) | Plant response rating, Lambsquarters ([4]; Preemergence, 125 g ai/ha) | Plant response rating, Pigweed ([5]; Postemergence, 31 g ai/ha) | Plant response rating, Pigweed ([5]; Postemergence, 62 g ai/ha) | Plant response rating, Pigweed ([5]; Postemergence, 125 g ai/ha) | Plant response rating, Pigweed ([5]; Preemergence, 125 g ai/ha) | Plant response rating, Wheat ([6]; Postemergence, 125 g ai/ha)
60: Plant response rating, Chickweed ([3]; Preemergence, 16 g ai/ha) | Plant response rating, Pigweed ([5]; Postemergence, 16 g ai/ha) | Plant response rating, Pigweed ([5]; Preemergence, 16 g ai/ha) | Plant response rating, Buckwheat, Wild ([7]; Preemergence, 31 g ai/ha) | Plant response rating, Mustard, Wild ([8]; Postemergence, 16 g ai/ha) | Plant response rating, Signalgrass [9, 16] | Plant response rating, Mallow [10, 16] | Plant response rating, Crabgrass, Large [11, 16] | Plant response rating, Quackgrass [12, 13] | Plant response rating, Quackgrass [12, 19]
40: Plant response rating, Wheat ([6]; Postemergence, 16 g ai/ha)
75: Plant response rating, Chickweed ([3]; Preemergence, 125 g ai/ha) | Plant response rating, Kochia (kochia (Kochia scoparia); Preemergence, 31 g ai/ha) | Plant response rating, Lambsquarters ([4]; Preemergence, 31 g ai/ha) | Plant response rating, Buckwheat, Wild ([7]; Preemergence, 125 g ai/ha) | Plant response rating, Mustard, Wild ([8]; Postemergence, 125 g ai/ha) | Plant response rating, Signalgrass [9, 13] | Plant response rating, Signalgrass [9, 17] | Plant response rating, Signalgrass [9, 20] | Plant response rating, Signalgrass [9, 21]
80: Plant response rating, Galium ([2]; Preemergence, 16 g ai/ha) | Plant response rating, Galium ([2]; Preemergence, 31 g ai/ha) | Plant response rating, Wheat ([6]; Postemergence, 31 g ai/ha) | Plant response rating, Buckwheat, Wild ([7]; Postemergence, 31 g ai/ha) | Plant response rating, Buckwheat, Wild ([7]; Postemergence, 62 g ai/ha) | Plant response rating, Buckwheat, Wild ([7]; Postemergence, 125 g ai/ha) | Plant response rating, Mallow [10, 19]
70: Plant response rating, Chickweed ([3]; Preemergence, 62 g ai/ha) | Plant response rating, Pigweed ([5]; Preemergence, 31 g ai/ha) | Plant response rating, Wheat ([6]; Preemergence, 31 g ai/ha) | Plant response rating, Wheat ([6]; Preemergence, 62 g ai/ha) | Plant response rating, Wheat ([6]; Preemergence, 125 g ai/ha) | Plant response rating, Buckwheat, Wild ([7]; Preemergence, 62 g ai/ha) | Plant response rating, Mustard, Wild ([8]; Postemergence, 31 g ai/ha) | Plant response rating, Mustard, Wild ([8]; Postemergence, 62 g ai/ha) | Plant response rating, Mustard, Wild ([8]; Preemergence, 62 g ai/ha) | Plant response rating, Signalgrass [9, 19] | Plant response rating, Mallow [10, 13] | Plant response rating, Crabgrass, Large [11, 13] | Plant response rating, Crabgrass, Large [11, 14] | Plant response rating, Crabgrass, Large [11, 17] | Plant response rating, Quackgrass [12, 14] | Plant response rating, Quackgrass [12, 17]
30: Plant response rating, Crabgrass, Large [11, 19] | Plant response rating, Quackgrass [12, 16]
50: Plant response rating, Buckwheat, Wild ([7]; Postemergence, 16 g ai/ha) | Plant response rating, Mustard, Wild ([8]; Preemergence, 16 g ai/ha) | Plant response rating, Mallow [10, 15] | Plant response rating, Mallow [10, 18] | Plant response rating, Crabgrass, Large [11, 15]
95: Plant response rating, Galium ([2]; Postemergence, 16 g ai/ha) | Plant response rating, Lambsquarters ([4]; Postemergence, 16 g ai/ha) | Plant response rating, Lambsquarters ([4]; Postemergence, 31 g ai/ha) | Plant response rating, Pigweed ([5]; Preemergence, 62 g ai/ha) | Plant response rating, Signalgrass [9, 22] | Plant response rating, Mallow [10, 14] | Plant response rating, Mallow [10, 17] | Plant response rating, Mallow [10, 20] | Plant response rating, Mallow [10, 21] | Plant response rating, Mallow [10, 22] | Plant response rating, Quackgrass [12, 21] | Plant response rating, Quackgrass [12, 22]
65: Plant response rating, Russian Thistle ([1]; Postemergence, 31 g ai/ha) | Plant response rating, Chickweed ([3]; Postemergence, 16 g ai/ha) | Plant response rating, Chickweed ([3]; Postemergence, 31 g ai/ha) | Plant response rating, Chickweed ([3]; Postemergence, 62 g ai/ha) | Plant response rating, Chickweed ([3]; Preemergence, 31 g ai/ha) | Plant response rating, Kochia (kochia (Kochia scoparia); Preemergence, 16 g ai/ha) | Plant response rating, Lambsquarters ([4]; Preemergence, 16 g ai/ha) | Plant response rating, Mustard, Wild ([8]; Preemergence, 31 g ai/ha)
